Experiment [1] addresses T1, IRAK4 (Homo sapiens, UniProt Q9NWZ3).
T1 sequence (Q9NWZ3 1-460): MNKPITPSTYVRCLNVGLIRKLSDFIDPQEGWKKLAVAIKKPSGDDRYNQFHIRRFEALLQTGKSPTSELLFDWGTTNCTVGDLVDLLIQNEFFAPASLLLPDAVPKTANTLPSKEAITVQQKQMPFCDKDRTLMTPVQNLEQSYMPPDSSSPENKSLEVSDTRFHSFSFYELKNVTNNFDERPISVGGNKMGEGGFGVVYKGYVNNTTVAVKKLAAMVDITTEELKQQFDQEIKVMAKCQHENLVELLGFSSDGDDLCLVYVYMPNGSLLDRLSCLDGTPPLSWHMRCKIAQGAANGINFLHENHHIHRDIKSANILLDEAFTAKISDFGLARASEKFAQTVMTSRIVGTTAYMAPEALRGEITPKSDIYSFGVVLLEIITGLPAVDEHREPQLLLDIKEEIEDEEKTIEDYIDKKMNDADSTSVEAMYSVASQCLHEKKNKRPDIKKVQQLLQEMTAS
The experiment in a line: IRAK4 degradation in OCI-LY10 (MSD, Meso Scale Discovery). It is filed as cell-based. Also on record: endogenous in cells; host or cells: OCI-LY10. To be noted: OCI-LY10 cells, 24 h. How it is done:
Degradation of IRAK4 in OCI-LY10 was quantitatively measured using Meso Scale Discovery technology. OCI-LY10 cells were seeded in 96-well plates (Corning 3799) with a density of 300,000 cells per well in 100 μL fresh media. Compounds were then added to the assay plates with a final top concentration of 1 to 10 μM in a 1:3 dilution series with total of 8 doses. The assay plates were then incubated for 4 to 24 hours at 37° C. under 5% CO2. The assay plates were then centrifuged for 5 minutes and the cell pellets were treated with 100 μL/well RIPA lysis buffer (Boston BioProducts BP-115D) with proteinase inhibitors. To prepare MSD assay plates (Meso Scale Discovery Catalog number L15XA-3), the plates were coated with 2 ug/mL capture antibody (mouse Anti-IRAK4 antibody [2H9], ab119942) in PBS, at 40 μL/well. The plates were then incubated overnight at […], washed 3 times with 150 μL/well TBST buffer (Cell Signaling Technology, Catalog number 9997S) and blocked with 150 μL/well blocking buffer (Meso Scale Discovery Catalog number R^93BA-4). Cell lysates were then added to MSD assay plates and the plates were incubated at room temperature for 1 hour. The plates were then washed 3 times with 150 μL/well TBST buffer and 25 μL/well primary detection antibody (rabbit Anti-IRAK4 antibody [Y279], from Abcam. Catalog number ab32511, 1 μg/mL). The assay plates were then incubated at room temperature for 1 hour, washed 3 times with 150 μL/well TBST buffer and 25 μL/well secondary detection antibody, SULFO-TAG anti-rabbit antibody were added (anti-rabbit antibody from Meso Scale Discovery, Catalog number R^32AB-1, 1 μg/mL). The assay plates were then incubated at room temperature for 1 hour, washed 3 times with 150 μL/well TBST buffer, and 150 μL/well MSD reading buffer (Meso Scale Discovery catalog number R^92TC-2) was added. The plates were then analyzed by a MSD reader (Meso Scale Discovery, Model Quick Plex SQ 120). The data was then analyzed by software Prism 7.0 from GraphPad and the dose-depended IRAK4 degradation were fit using a three-parameter logistic equation to calculate DC50.
(§1) IRAK4 MSD degradation in OCI-LY10 results at 4 and 24 hrs and hPBMC at 20 hrs for compounds of the invention are presented in Table 3. The letter codes for IRAK4 DC50 include: A (<0.1 μM), B (0.1-1.0 μM), C(>1.0-10.0 μM), D (>10.0 μM or not determined).

Experiment [2] has as its target T1, IRAK4. The experiment in a line: hPBMC IRAK4 degradation flow assay (monocytes). The class given is cell-based. To be noted: CD14 positive monocytes, 20 h, read-out: hPBMC monocyte DC50 at 20 h. Also on record: endogenous in cells; host or cells: human PBMCs (monocytes, CD14 positive gate). How it is done: In the hPBMC IRAK4 degradation flow assay, frozen PBMCs were thawed into RPMI with 10% FBS and allowed to recover. On the same day as thawed, PBMCs were plated in 96 well plate, 90 μL per well. Compound plates were prepared and a 10 point, 5-fold dilution was performed with a final DMSO concentration of 0.1%. Compound 10 μL per well was added, sealed and incubated at 37° C., 5% CO2 for 20 hours (for 4 hour treatment, compounds were prepared and added the following day). Following the treatment incubation period (day 1), 1.6% PFA was added to PBMC plate and placed on plate shaker for 30 seconds and incubated for 10 mins at room temperature. Cells were spun down and washed two times with PBS/0.5% BSA, aspirated to pellet and placed into −80° C. freezer until further processing for flow. On the flow run day, PBMC plates were thawed and samples were transferred to PCR plates. The pre-perm staining cocktail (CD3 Ax488/CD8 BUV805/CD14 BUV395/CD16/56 BV711/CD19 BV785) was added to samples and incubated for 30 minutes at room temperature. Samples were washed two times and permeabilized with methanol for 10 minutes at 4° C. Samples were washed two times and the post-perm staining cocktail (CD4 PE/IRAK4 Ax647 BD #560315) was added and incubated for 30 minutes at room temperature. Samples were washed two times with PBS/BSA and run on a BD LSRFortessa. Mononuclear cells are gated by SSCH/FSCH and single cells. Monocytes are then gated through CD14 positive gate and lymphocytes are gated through CD14 negative gate. To determine absolute DC50 and max degradation values, MFI values were normalized to DMSO max and 20 hour 10 µM min control. Twenty hour dose curves were calculated using a 4 parameter logistic regression curve fit, no constraints (Top doses were removed if hook effects were observed and the bottom was constrained to 0).
as §1

Turning to `CCOC(=O)Cn1cc(NC(=O)[C@H]2CCCN(c3cncc(NCCNC[C@H]4CC[C@H](n5cc(NC(=O)c6cnn7ccc(N8C[C@H]9C[C@@H]8CO9)nc67)c(C(F)F)n5)CC4)c3)C2)ccc1=O` [Compound I-16], the DC50 in experiment [1] and in experiment [2] was more than 10 µM throughout.
With `CCOC(=O)Cn1cc(NC(=O)c2cccc3c2ccn3CCCNC[C@H]2CC[C@H](n3cc4cc(NC(=O)c5cccc(C(F)(F)F)n5)c(C(C)(C)O)cc4n3)CC2)ccc1=O` [Compound I-79], the half-maximal degradation concentration (DC50) in experiment [1] and in experiment [2] was more than 10 µM each time.
In the case of `COc1cc2nn([C@H]3CC[C@H](CN4CCC(OCC#Cc5cncc(N6CCC[C@H](C(=O)Nc7ccc(=O)n(CC(=O)O)c7)C6)c5)CC4)CC3)cc2cc1NC(=O)c1cccc(C(F)(F)F)n1` [Compound I-9], the DC50 is more than 10 µM in experiment [1] and 0.1 to 1 µM in experiment [2].
In the same order, the values of `CCOC(=O)Cn1cc(NC(=O)c2cccc(-c3cncc(CCCCCCCCCNC[C@H]4CC[C@H](n5cc6cc(NC(=O)c7cccc(C(F)(F)F)n7)c(C(C)(C)O)cc6n5)CC4)c3)c2)ccc1=O` [Compound I-88, Ethyl 2-[5-[[3-[5-[9-[4-[6-(1-hydroxy-1-methyl-ethyl)—5-[[6-(trifluoromethyl)pyridine-2-carbonyl]amino]indazol-2-yl]cyclohexyl]methylamino]nonyl]-3-pyridyl]benzoyl]amino]-2-oxo-1-pyridyl acetate] are 1 to 10 µM and 0.1 to 1 µM.
In the same order, the values of `CCOC(=O)Cn1cc(NC(=O)c2cc(CCCNC[C@H]3CC[C@H](n4cc(NC(=O)c5cnn6ccc(N7C[C@H]8C[C@@H]7CO8)nc56)c(C(F)F)n4)CC3)cc(-c3cccnc3)c2)ccc1=O` [Compound I-83] are more than 10 µM and more than 10 µM.
Turning to `COc1cc2nn([C@H]3CC[C@H](CNCCOc4cncc(N5CCC[C@H](C(=O)Nc6ccc(=O)n(CC(=O)O)c6)C5)c4)CC3)cc2cc1NC(=O)c1cccc(C(F)(F)F)n1` [Compound I-29], the half-maximal degradation concentration (DC50) in experiment [1] and in experiment [2] was more than 10 µM in each case.
On to `O=C(O)Cn1cc(NC(=O)c2cccc3c2ccn3CCCCCCCCCNC[C@H]2CC[C@H](n3cc(NC(=O)c4cnn5ccc(N6C[C@H]7C[C@@H]6CO7)nc45)c(C(F)F)n3)CC2)ccc1=O` [Compound I-70], for which the DC50 in experiment [1] and in experiment [2] was more than 10 µM each time.
As for `CC(C)(O)c1cc2nn([C@H]3CC[C@H](CNCCCCCCCCCn4ccc5c(C(=O)Nc6ccc(=O)n(CC(=O)O)c6)cccc54)CC3)cc2cc1NC(=O)c1cccc(C(F)(F)F)n1` [Compound I-68], the figures for the 50% degradation concentration (DC50) in experiment [1] and in experiment [2] were more than 10 µM and 1 to 10 µM, respectively.
For `CCOC(=O)Cn1cc(NC(=O)c2cc(CCCCCCCCCNC[C@H]3CC[C@H](n4cc(NC(=O)c5cnn6ccc(N7C[C@H]8C[C@@H]7CO8)nc56)c(C(F)F)n4)CC3)cc(-c3cccnc3)c2)ccc1=O` [Compound I-75] the same measures were 1 to 10 µM and more than 10 µM.
For `CCOC(=O)Cn1cc(NC(=O)[C@H]2CCCN(c3cncc(CCCCCCNC[C@H]4CC[C@H](n5cc6cc(NC(=O)c7cccc(C(F)(F)F)n7)c(OC)cc6n5)CC4)c3)C2)ccc1=O` [Compound I-42] the same measures were more than 10 µM and less than 0.1 µM.
For `CCOC(=O)Cn1cc(NC(=O)[C@H]2CCCN(c3cncc(NCCNC[C@H]4CC[C@H](n5cc6cc(NC(=O)c7cccc(C(F)(F)F)n7)c(OC)cc6n5)CC4)c3)C2)ccc1=O` [Compound I-14], the DC50 in experiment [1] and in experiment [2] was more than 10 µM in each case.
For the compound `CC(C)(O)c1cc2nn([C@H]3CC[C@H](CNCCCCCCn4ccc5c(C(=O)Nc6ccc(=O)n(CC(=O)O)c6)cccc54)CC3)cc2cc1NC(=O)c1cccc(C(F)(F)F)n1` [Compound I-58], the DC50 in experiment [1] and in experiment [2] was more than 10 µM in each case.
Consider `O=C(O)Cn1cc(NC(=O)[C@H]2CCCN(c3cncc(NCCNC[C@H]4CC[C@H](n5cc(NC(=O)c6cnn7ccc(N8C[C@H]9C[C@@H]8CO9)nc67)c(C(F)F)n5)CC4)c3)C2)ccc1=O` [Compound I-8], for which the DC50 in experiment [1] and in experiment [2] was more than 10 µM each time.
For the compound `O=C(O)Cn1cc(NC(=O)[C@H]2CCCN(c3cncc(OCCCCNC[C@H]4CC[C@H](n5cc(NC(=O)c6cnn7ccc(N8C[C@H]9C[C@@H]8CO9)nc67)c(C(F)F)n5)CC4)c3)C2)ccc1=O` [Compound I-46], the DC50 in experiment [1] and in experiment [2] was more than 10 µM in each case.
Take `O=C(O)Cn1cc(NC(=O)c2cc(CCCNC[C@H]3CC[C@H](n4cc(NC(=O)c5cnn6ccc(N7C[C@H]8C[C@@H]7CO8)nc56)c(C(F)F)n4)CC3)cc(-c3cccnc3)c2)ccc1=O` [Compound I-76]: the 50% degradation concentration (DC50) in experiment [1] and in experiment [2] was more than 10 µM in each case.
For `CCOC(=O)Cn1cc(NC(=O)c2cccc(-c3cncc(CCCCCCCCCNC[C@H]4CC[C@H](n5cc(NC(=O)c6cnn7ccc(N8C[C@H]9C[C@@H]8CO9)nc67)c(C(F)F)n5)CC4)c3)c2)ccc1=O` [Compound I-89], the half-maximal degradation concentration (DC50) in experiment [1] and in experiment [2] was 1 to 10 µM throughout.
On to `CC(C)(O)c1cc2nn([C@H]3CC[C@H](CNCCCc4cncc(-c5cccc(C(=O)Nc6ccc(=O)n(CC(=O)O)c6)c5)c4)CC3)cc2cc1NC(=O)c1cccc(C(F)(F)F)n1` [Compound I-86], for which the DC50 in experiment [1] and in experiment [2] was more than 10 µM throughout.
`CCOC(=O)Cn1cc(NC(=O)[C@H]2CCCN(c3cncc(NCCOCCOCCNC[C@H]4CC[C@H](n5cc(NC(=O)c6cnn7ccc(N8C[C@H]9C[C@@H]8CO9)nc67)c(C(F)F)n5)CC4)c3)C2)ccc1=O` [Compound I-15]: the 50% degradation concentration (DC50) in experiment [1] and in experiment [2] was more than 10 µM throughout.
Take `CCOC(=O)Cn1cc(NC(=O)[C@H]2CCCN(c3cncc(OCCNC[C@H]4CC[C@H](n5cc6cc(NC(=O)c7cccc(C(F)(F)F)n7)c(OC)cc6n5)CC4)c3)C2)ccc1=O` [Compound I-33]: the DC50 was more than 10 µM in experiment [1] and 1 to 10 µM in experiment [2].
For `CCOC(=O)Cn1cc(NC(=O)c2cccc(-c3cncc(CCCNC[C@H]4CC[C@H](n5cc6cc(NC(=O)c7cccc(C(F)(F)F)n7)c(C(C)(C)O)cc6n5)CC4)c3)c2)ccc1=O` [Compound I-90] the same measures were more than 10 µM and more than 10 µM.
Consider `O=C(O)Cn1cc(NC(=O)c2cc(CCCCCCCCCNC[C@H]3CC[C@H](n4cc(NC(=O)c5cnn6ccc(N7C[C@H]8C[C@@H]7CO8)nc56)c(C(F)F)n4)CC3)cc(-c3cccnc3)c2)ccc1=O` [Compound I-74], for which the 50% degradation concentration (DC50) in experiment [1] and in experiment [2] was more than 10 µM throughout.

Usually DC50 stands for the midpoint of the concentration-degradation curve.

Source of the values: patent US20250205342A1, “IRAK DEGRADERS AND USES THEREOF” (Kymera Therapeutics, Inc., priority 2022, published 2025).
